How the values were obtained:
[1] = biological target: ALK tyrosine kinase receptor (Homo sapiens) (UniProt Q9UM73); assay: Inhibition of N-terminal GST-fused wild type human ALK cytoplasmic domain (1058 to 1620 residues ) expressed in baculovirus-infecetd Sf21 cells using Srctide as substrate at 1 uM in presence of ATP by Mobility shift assay
[2] = biological target: Tyrosine-protein kinase ABL2 (Homo sapiens) (UniProt P42684); assay: Inhibition of N-terminal GST-fused truncated human ARG (2 to 52, 74 to 1182 residues) expressed in baculovirus-infected Sf21 cells using ABLtide as substrate at 1 uM in presence of ATP by Mobility shift assay
[3] = biological target: Epithelial discoidin domain-containing receptor 1 (Homo sapiens) (UniProt Q08345); assay: Inhibition of N-terminal GST-fused human DDR1 cytoplasmic domain (444 to 876 residues) expressed in baculovirus-infected Sf21 cells using IRS1 as substrate at 1 uM in presence of ATP by Mobility shift assay
[4] = biological target: Ephrin type-A receptor 5 (Homo sapiens) (UniProt P54756); assay: Inhibition of N-terminal GST-fused human EPHA5 catalytic domain (662 to 948 residues) expressed in baculovirus-infected Sf21 cells using Blk/Lyntide as substrate at 1 uM in presence of ATP by Mobility shift assay
[5] = biological target: Ephrin type-A receptor 8 (Homo sapiens) (UniProt P29322); assay: Inhibition of N-terminal GST-fused human EPHA8 catalytic domain (571 to 924 residues) expressed in baculovirus-infected Sf21 cells using Blk/Lyntide as substrate at 1 uM in presence of ATP by Mobility shift assay
[6] = biological target: Fibroblast growth factor receptor 3 (Homo sapiens) (UniProt P22607); assay: Inhibition of N-terminal GST-fused human FGFR3 cytoplasmic domain (436 to 806 residues) expressed in baculovirus-infected Sf21 cells using CSKtide as substrate at 1 uM in presence of ATP by Mobility shift assay
[7] = biological target: Insulin receptor (Homo sapiens) (UniProt P06213); assay: Inhibition of N-terminal fused human INSR catalytic domain (1005 to 1310 residues) expressed in baculovirus-infected Sf21 cells using IRS1 as substrate at 1 uM in presence of ATP by Mobility shift assay
[8] = biological target: Platelet-derived growth factor receptor beta (Homo sapiens) (UniProt P09619); assay: Inhibition of N-terminal GST-tagged human PDGFR-beta cytoplasmic domain (557 to 1106 residues) expressed in baculovirus-infected Sf21 cells using CSKtide as substrate at 1 uM in presence of ATP by Mobility shift assay
[9] = biological target: Tyrosine-protein kinase JAK3 (Homo sapiens) (UniProt P52333); assay: Inhibition of N-terminal His-tagged human JAK3 catalytic domain (795 to 1124 residues) expressed in baculovirus-infected Sf21 cells using Srctide as substrate at 1 uM in presence of ATP by Mobility shift assay
[10] = biological target: High affinity nerve growth factor receptor (Homo sapiens) (UniProt P04629); assay: Inhibition of N-terminal GST-tagged human TRKA cytoplasmic domain (436 to 790 residues) expressed in baculovirus-infected Sf21 cells using CSKtide as substrate at 1 uM in presence of ATP by Mobility shift assay
[11] = biological target: CDC7/DBF4 (Cell division cycle 7-related protein kinase/Activator of S phase kinase) (Homo sapiens) (UniProt Q9UBU7+O00311); assay: Inhibition of N-terminal GST-tagged full length human CDC7 (1 to 574 residues)/N-terminal GST-tagged ASK (1 to 674 residues) expressed in baculovirus-infected Sf21 cells using MCM2 peptide as substrate at 1 uM in presence of ATP by Mobility shift assay
[12] = biological target: Casein kinase I isoform gamma-2 (Homo sapiens) (UniProt P78368); assay: Inhibition of N-terminal GST-fused full length human CK1gamma2 (1 to 415 residues) expressed in baculovirus expression system using CKtide as substrate at 1 uM in presence of ATP by Mobility shift assay
[13] = biological target: Mitogen-activated protein kinase 1 (Homo sapiens) (UniProt P28482); assay: Inhibition of N-terminal GST-fused full length human ERK2 (1 to 360 residues) expressed in Escherichia coli expression system using Modified Erktide as substrate at 1 uM in presence of ATP by Mobility shift assay
[14] = biological target: Homeodomain-interacting protein kinase 1 (Homo sapiens) (UniProt Q86Z02); assay: Inhibition of N-terminal GST-fused human HIPK1 catalytic domain (158 to 555 residues) expressed in baculovirus expression system using DYRKtide-F as substrate at 1 uM in presence of ATP by Mobility shift assay
[15] = biological target: Mitogen-activated protein kinase kinase kinase kinase 2 (Homo sapiens) (UniProt Q12851); assay: Inhibition of N-terminal GST-fused full length human MAP4K2 (1 to 820 residues) expressed in baculovirus expression system using S6K2 peptide as substrate at 1 uM in presence of ATP by Mobility shift assay
[16] = Inhibition of N-terminal GST-fused full length human MGC42105 (1 to 436 residues) expressed in baculovirus expression system using CHKtide as substrate at 1 uM in presence of ATP by Mobility shift assay; conditions: condition cancer
[17] = biological target: MAP kinase-interacting serine/threonine-protein kinase 2 (Homo sapiens) (UniProt Q9HBH9); assay: Inhibition of N-terminal GST-fused full length human MNK2 (1 to 465 residues) expressed in baculovirus expression system using RS peptide as substrate at 1 uM in presence of ATP by Mobility shift assay
[18] = biological target: NUAK family SNF1-like kinase 1 (Homo sapiens) (UniProt O60285); assay: Inhibition of N-terminal GST-fused full length human Nuak1 (1 to 661 residues) expressed in baculovirus expression system using CHKtide as substrate at 1 uM in presence of ATP by Mobility shift assay
[19] = biological target: Serine/threonine-protein kinase PAK 4 (Homo sapiens) (UniProt O96013); assay: Inhibition of N-terminal GST-fused full length human PAK4 (1 to 591 residues) expressed in baculovirus expression system using SGKtide as substrate at 1 uM in presence of ATP by Mobility shift assay
[20] = biological target: Phosphorylase b kinase gamma catalytic chain, skeletal muscle/heart isoform (Homo sapiens) (UniProt Q16816); assay: Inhibition of N-terminal GST-fused full length human PHKG1 (1 to 387 residues) expressed in baculovirus expression system using GS peptide as substrate at 1 uM in presence of ATP by Mobility shift assay
[21] = biological target: Serine/threonine-protein kinase N1 (Homo sapiens) (UniProt Q16512); assay: Inhibition of N-terminal GST-fused full length human PKN1 (1 to 942 residues) expressed in baculovirus expression system using S6K peptide as substrate at 1 uM in presence of ATP by IMAP
[22] = biological target: PI3-kinase p110-alpha/p85-alpha (Homo sapiens) (UniProt P27986+P42336); assay: Inhibition of N-terminal DYKDDDDK tagged, biotinylated full length human PIK3CA (1 to 1068 residues)/human PIK3R1 (1 to 724 residues) expressed in baculovirus expression system using PI(4,5)P2 as substrate at 1 uM in presence of ATP by ADP-Glo assay

Work on `Cc1cc(C)c(CNC(=O)c2cc(Cl)c3c(c2C)O[C@@](C)([C@H]2CC[C@H](N(C)C)CC2)O3)c(=O)[nH]1` [VALEMETOSTAT] yielded an inhibition [1] of -9.1%, an inhibition [2] of -8.7% and an inhibition [3] of -3.7%. It also gave an inhibition [4] of -3.4%, an inhibition [5] of -5.3% and an inhibition [6] of -2.3%. For the same compound, the inhibition [7] was 0.1%, the inhibition [8] was -4.5% and the inhibition [9] was -4%. It also gave an inhibition [10] of -5.7%, an inhibition [11] of -6.7% and an inhibition [12] of -5.8%. It also gave an inhibition [13] of -8.8%, an inhibition [14] of 0.5% and an inhibition [15] of 2.3%. For the same compound, the inhibition at 1 µM [16] was -0.3%, the inhibition [17] was 8.7% and the inhibition [18] was 3%. For the same compound, the inhibition [19] was 0.1%, the inhibition [20] was -3.7% and the inhibition [21] was 8.3%. For the same compound, the inhibition [22] was 0.6%.

`Cc1cc(C)c(CNC(=O)c2cc(Br)c3c(c2C)O[C@@](C)([C@H]2CC[C@H](N(C)C)CC2)O3)c(=O)[nH]1` showed an inhibition [1] of -2.8%, an inhibition [2] of -7.4% and an inhibition [3] of -3.3%. The inhibition [4] was -6.3%, the inhibition [5] was -7% and the inhibition [6] was -1.9%. For the same compound, the inhibition [7] was 4.8%, the inhibition [8] was -1.3% and the inhibition [9] was -1.7%. For the same compound, the inhibition [10] was -5.1%, the inhibition [11] was -5.5% and the inhibition [12] was -2.8%. The inhibition [13] was -6.6%, the inhibition [14] was -4.7% and the inhibition [15] was 4.5%. For the same compound, the inhibition at 1 µM [16] was -1.7%, the inhibition [17] was 7.2% and the inhibition [18] was -1.7%. The inhibition [19] was -1.8%, the inhibition [20] was -1.5% and the inhibition [21] was 6.7%. For the same compound, the inhibition [22] was 9.8%.

— ChEMBL document CHEMBL5647694, “Novel orally bioavailable EZH1/2 dual inhibitors with greater antitumor efficacy than an EZH2 selective inhibitor” (Cancer Sci, 2017)
